What all share (experiment): ≥ marks a high value that may be exact or a test limit, other limits are often not marked, values filed in µg/mL are converted to µM
Assay [1] concerns Pseudomonas aeruginosa.
In assay [2] the test system is Staphylococcus epidermidis.
Assay [3] relates to Bacillus subtilis.
Assay [4] relates to Escherichia coli ATCC 8739.
For assay [5], the system named is Klebsiella pneumoniae ATCC 13883.
The subject of assay [6] is Escherichia coli ATCC 25922.
The subject of assay [7] is Pseudomonas aeruginosa PAO1.
Assay [8] concerns Staphylococcus aureus USA 300.
In assay [9] the test system is Staphylococcus aureus ATCC 6538.
Assay [10] deals with Staphylococcus aureus ATCC 43300.
In assay [11] the test system is Candida albicans ATCC 90028.
Assay [12] deals with Escherichia coli ATCC 25726.
The test system of assay [13] is Staphylococcus aureus ATCC 25923.
For assay [14], the system named is Klebsiella pneumoniae ATCC 700603.
The subject of assay [15] is Pseudomonas aeruginosa ATCC 27853.
In assay [16] the test system is Escherichia coli.
Assay [17] deals with Micrococcus luteus A270.
Assay [18] deals with Listeria innocua.
Assay [19] deals with Staphylococcus aureus NCTC 8325.

Converted amounts (≈) assume the structure as drawn.

The MIC is the least concentration at which growth counts as inhibited. With `CC(C)C[C@H](NC(=O)[C@H](CCCCN)NC(=O)[C@H](Cc1c[nH]c2ccccc12)NC(=O)[C@H](C)N)C(=O)N[C@@H](Cc1ccccc1)C(=O)N[C@@H](CC(=O)O)C(=O)N[C@@H](CC(=O)O)C(=O)NCC(=O)N[C@H](C(=O)O)C(C)C` [AWKLFDDGV], the minimum inhibitory concentration (MIC) in [1] was 30 µM (≈ 31.5 µg/mL); in assay [2], at least 60 µM; in assay [3], 30 µM (≈ 31.5 µg/mL); in assay [4] it was 30 µM (≈ 31.5 µg/mL).
`CC(C)C[C@H](NC(=O)[C@H](CCCCN)NC(=O)CNC(=O)[C@H](CC(C)C)NC(=O)[C@H](CC(C)C)NC(=O)[C@H](CC(C)C)NC(=O)[C@H](CO)NC(=O)[C@H](CC(C)C)NC(=O)[C@H](CC(C)C)NC(=O)[C@H](CC(C)C)NC(=O)[C@H](CO)NC(=O)[C@H](CC(C)C)NC(=O)CN)C(N)=O` [GLSLLLSLLLGKL]: the MIC in [5] was 25 µM (≈ 33.5 µg/mL); in [6] it was over 25 µM; in assay [7] it was over 25 µM; in assay [8], 6.2 µM (≈ 8.3 µg/mL).
Regarding `CC[C@H](C)[C@H](NC(=O)[C@H](CCCCN)NC(=O)[C@@H](NC(=O)[C@H](CO)NC(=O)[C@H](CC(N)=O)NC(=O)[C@H](Cc1c[nH]c2ccccc12)NC(=O)[C@H](CC(C)C)NC(=O)CN)[C@@H](C)CC)C(=O)N[C@@H](C)C(=O)NCC(=O)N[C@@H](CCCCN)C(=O)N[C@@H](CCCCN)C(=O)N[C@@H](CC(C)C)C(=O)N[C@@H](Cc1ccccc1)C(=O)N[C@H](C(=O)N[C@@H](CC(N)=O)C(=O)N[C@H](C(=O)N[C@@H](CC(C)C)C(=O)N[C@@H](CC(=O)O)C(=O)N[C@@H](CCCCN)C(=O)N[C@H](C(=O)N[C@@H](CCCN=C(N)N)C(=O)N[C@H]1CSSC[C@@H](C(=O)N[C@@H](CCCCN)C(=O)N[C@H](C(=O)N[C@@H](CO)C(=O)N2CCC[C@H]2C(=O)N[C@@H](CC(=O)O)C(=O)N[C@H](C(=O)N[C@@H](CCC(=O)O)C(=O)O)C(C)C)[C@@H](C)O)NC(=O)CNC(=O)CNC(=O)[C@H](C)NC(=O)[C@H](C(C)C)NC(=O)[C@H](CCCCN)NC1=O)[C@@H](C)CC)C(C)C)C(C)C` [GLWNSIKIAGKKLFVNVLDKIRCKVAGGCKTSPDVE], the minimal inhibitory concentration (MIC) amounted to 6.3 µM (≈ 24.5 µg/mL) in assay [9], 100 µM (≈ 389 µg/mL) in [10] and 6.3 µM (≈ 24.5 µg/mL) in [4].
Take `CC[C@H](C)[C@H](NC(=O)[C@H](CCCCN)NC(=O)[C@@H](NC(=O)[C@@H](NC(=O)[C@H](CCCCN)NC(=O)CNC(=O)[C@H](CC(C)C)NC(=O)[C@@H](NC(=O)[C@H](CO)NC(=O)CNC(=O)[C@H](C)NC(=O)[C@H](CCCCN)NC(=O)[C@H](CO)NC(=O)[C@H](C)NC(=O)[C@H](CCSC)NC(=O)CN)C(C)C)[C@@H](C)CC)[C@@H](C)O)C(=O)N[C@@H](C)C(=O)N[C@@H](CC(C)C)C(=O)NCC(=O)N[C@@H](C)C(=O)N[C@@H](CC(C)C)C(N)=O` [GMASKAGSVLGKITKIALGAL]: the minimal inhibitory concentration (MIC) in assay [11] is at least 50 µM; in assay [12], 12.5 µM (≈ 24.8 µg/mL); in assay [13], 100 µM (≈ 199 µg/mL).
Turning to `CC[C@H](C)[C@H](NC(=O)[C@H](CCC(=O)O)NC(=O)CNC(=O)[C@H](CC(C)C)NC(=O)[C@H](Cc1ccccc1)NC(=O)[C@H](C)NC(=O)[C@H](CCCCN)NC(=O)CNC(=O)[C@H](Cc1ccccc1)NC(=O)[C@H](CCCCN)NC(=O)CNC(=O)[C@H](C)NC(=O)[C@H](CO)NC(=O)[C@H](Cc1cnc[nH]1)NC(=O)[C@H](CC(C)C)NC(=O)[C@@H](NC(=O)[C@H](CCCCN)NC(=O)[C@H](CO)NC(=O)[C@@H](NC(=O)CN)C(C)C)[C@@H](C)CC)C(=O)N[C@@H](CCSC)C(=O)N[C@@H](CCCCN)C(=O)N[C@@H](CO)C(=O)O` [GVSKILHSAGKFGKAFLGEIMKS], the MIC in assay [14] was 100 µM (≈ 241 µg/mL); in [12], at least 100 µM; in [13], over 100 µM; in [6] it was 50 µM (≈ 120 µg/mL); in [15], 200 µM (≈ 481 µg/mL).
As to `CC[C@H](C)[C@H](N)C(=O)N[C@@H](CCCCN)C(=O)N[C@H](C(=O)N1CCC[C@H]1C(=O)N[C@@H](C)C(=O)N[C@H](C(=O)N[C@H](C(=O)N[C@@H](CCCCN)C(=O)N[C@@H](CC(=O)O)C(=O)N[C@H](C(=O)N[C@@H](CC(C)C)C(=O)N[C@@H](CCCCN)C(=O)N[C@@H](CCCCN)C(=O)N[C@H](C(=O)N[C@@H](C)C(=O)N[C@@H](CCCCN)C(=O)NCC(=O)N[C@H](C(=O)N[C@@H](CC(C)C)C(=O)N[C@@H](CO)C(=O)N[C@@H](C)C(=O)N[C@H](C(=O)N[C@@H](C)C(=O)NCC(=O)N[C@@H](C)C(=O)N[C@@H](CC(C)C)C(=O)N[C@H](C(=O)N[C@@H](CCC(N)=O)C(=O)O)[C@@H](C)O)C(C)C)C(C)C)C(C)C)[C@@H](C)O)C(C)C)C(C)C)[C@@H](C)CC` [IKIPAVVKDTLKKVAKGVLSAVAGALTQ], the MIC in assay [11] is at least 80 µM; in [14] it was 40 µM (≈ 113 µg/mL); in assay [12], 20 µM (≈ 56.4 µg/mL); in assay [13] it was 40 µM (≈ 113 µg/mL); in [15], 40 µM (≈ 113 µg/mL).
Regarding `CC(C)C[C@H](NC(=O)[C@H](CC(C)C)NC(=O)[C@H](CO)NC(=O)[C@H](Cc1cnc[nH]1)NC(=O)[C@H](CO)NC(=O)[C@H](CC(C)C)NC(=O)[C@H](CC(C)C)NC(=O)[C@@H](N)CCCCN)C(=O)O` [KLLSHSLL], the MIC was 68 µM (≈ 61.9 µg/mL) in assay [16], at least 34 µM in assay [17] and at least 34 µM in [18].
As for `CC[C@H](C)[C@H](NC(=O)[C@H](C)NC(=O)[C@@H](NC(=O)[C@H](C)NC(=O)CNC(=O)[C@H](CCCCN)NC(=O)[C@@H](NC(=O)[C@H](C)NC(=O)CNC(=O)[C@H](CCCCN)NC(=O)[C@H](CC(C)C)NC(=O)[C@@H](NC(=O)[C@H](CCCCN)NC(=O)[C@H](CCCCN)NC(=O)[C@H](CC(C)C)NC(=O)[C@@H](NC(=O)[C@H](CC(=O)O)NC(=O)[C@H](CCCCN)NC(=O)[C@@H](NC(=O)[C@H](CCC(=O)O)NC(=O)[C@@H]1CCCN1C(=O)[C@H](CO)NC(=O)[C@H](CC(C)C)NC(=O)[C@H](CCCCN)NC(=O)[C@@H](N)CC(C)C)[C@@H](C)O)[C@@H](C)O)C(C)C)[C@@H](C)CC)[C@@H](C)CC)C(=O)N[C@@H](C)C(=O)N[C@@H](CO)C(=O)N[C@@H](CC(C)C)C(=O)N[C@@H](C)C(N)=O` [LKLSPETKDTLKKVLKGAIKGAIAIASLA], the MIC in assay [12] is at least 40 µM; in [13] it was 5 µM (≈ 14.9 µg/mL).
For `CC[C@H](C)[C@H](NC(=O)[C@H](CCCCN)NC(=O)[C@H](CCCCN)NC(=O)[C@H](C)NC(=O)[C@H](CC(C)C)NC(=O)[C@H](CC(N)=O)NC(=O)[C@@H](NC(=O)[C@H](CC(C)C)NC(=O)[C@@H](NC(=O)CNC(=O)[C@H](CC(C)C)NC(=O)[C@H](Cc1ccccc1)NC(=O)[C@@H](N)CC(N)=O)[C@@H](C)O)C(C)C)C(=O)N[C@@H](CC(C)C)C(N)=O` [NFLGTLVNLAKKIL], the MIC in [11] was at least 80 µM; in [12], at least 64 µM; in [13], 16 µM (≈ 24.7 µg/mL); in assay [6], 40 µM (≈ 61.7 µg/mL); in [19], 20 µM (≈ 30.9 µg/mL).
Consider `CC[C@H](C)[C@@H]1NC(=O)[C@@H]2CCCN2C(=O)[C@H](CC(C)C)NC(=O)[C@@H]2CCCN2C(=O)[C@H]([C@@H](C)CC)NC(=O)[C@H](Cc2c[nH]c3ccccc23)NC(=O)[C@H](CO)NC(=O)[C@@H](NC(=O)[C@@H](NC(=O)[C@@H](N)CCCN=C(N)N)C(C)C)CSSC[C@@H](C(=O)N[C@@H](Cc2cnc[nH]2)C(N)=O)NC1=O` [RVCSWIPLPICH], for which the minimum inhibitory concentration (MIC) in [12] was at least 500 µM; in assay [13], 250 µM (≈ 355 µg/mL).
Turning to `CC[C@H](C)[C@H](NC(=O)[C@H](CCCN=C(N)N)NC(=O)[C@@H](NC(=O)[C@@H](NC(=O)[C@H](CCCCN)NC(=O)[C@@H](NC(=O)[C@H](CC(C)C)NC(=O)[C@@H](NC(=O)[C@@H](NC(=O)[C@H](CCCCN)NC(=O)[C@H](CCCN=C(N)N)NC(=O)[C@H](Cc1ccc(O)cc1)NC(=O)CNC(=O)[C@H](Cc1cnc[nH]1)NC(=O)[C@H](CC(N)=O)NC(=O)[C@@H](N)C(C)C)C(C)C)[C@@H](C)O)[C@@H](C)O)[C@@H](C)O)C(C)C)C(=O)N[C@@H](CCCCN)C(=O)N[C@@H](CCCCN)C(=O)N[C@@H](Cc1ccccc1)C(=O)N[C@@H](CCSC)C(=O)O` [VNHGYRKVTLTKTVRIKKFM], the MIC in assay [8] is at least 128 µM.

The record behind these values is DBAASP.
